Publication PMC8486176 (Cancer Science, 2021)
Ends that are not written are not given here. * marks the point of attachment. RhodamineB = CCN(CC)c1ccc2c(-c3ccccc3C(=O)*)c3ccc(=[N+](CC)CC)cc-3oc2c1

System: NUGC‐4 cells
Assay: Immunofluorescence binding of RhoB‐labeled peptides to fixed NUGC‐4 cells
Assay type: cell-based, human
Details: ImageJ quantification, Figure 4C

## RhoB‐CG7C: CG7C peptide labeled with rhodamine B, negative control (RhodamineB-CGGGGGGGC; cysteine pairing not given here)
  mean fluorescence intensity (MFI): small positive MFI
